Laboratory results as given in article PMC8455565 (Scientific Reports, 2021).

Experiments:
BTK = BTK (Homo sapiens, UniProt Q06187); experiment: hBTK Lanthascreen biochemical activity
A431 = experiment: Cell growth inhibition in EGFR overexpressed A431; format: cell-based; conditions: Homo sapiens, A-431; cellular level; read-out: IC50, cell growth inhibition in EGFR overexppressed A431
ITK = molecular target: T1, ITK (Homo sapiens, UniProt Q08881); experiment: Kinase selectivity biochemical assay, ITK
T1 sequence (Q08881 1-620): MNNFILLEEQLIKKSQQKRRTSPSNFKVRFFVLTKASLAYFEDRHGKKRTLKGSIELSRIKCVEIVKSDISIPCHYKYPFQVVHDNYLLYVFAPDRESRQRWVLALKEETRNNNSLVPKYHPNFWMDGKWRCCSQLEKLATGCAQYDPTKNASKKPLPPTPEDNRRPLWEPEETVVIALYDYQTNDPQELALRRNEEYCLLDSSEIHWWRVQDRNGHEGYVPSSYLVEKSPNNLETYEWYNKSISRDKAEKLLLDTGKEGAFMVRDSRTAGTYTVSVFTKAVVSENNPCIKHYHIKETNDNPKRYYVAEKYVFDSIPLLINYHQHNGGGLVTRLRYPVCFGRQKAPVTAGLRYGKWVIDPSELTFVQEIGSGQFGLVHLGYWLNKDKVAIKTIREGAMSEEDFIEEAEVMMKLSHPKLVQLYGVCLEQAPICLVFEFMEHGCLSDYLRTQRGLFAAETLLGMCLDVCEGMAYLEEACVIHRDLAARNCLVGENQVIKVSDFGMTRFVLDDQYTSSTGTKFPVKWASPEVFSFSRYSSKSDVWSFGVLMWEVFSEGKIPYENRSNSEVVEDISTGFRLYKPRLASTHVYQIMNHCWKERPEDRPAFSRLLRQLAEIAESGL

BMX = molecular target: T2, BMX (Homo sapiens, UniProt P51813); experiment: Kinase selectivity biochemical assay (FRET), BMX
T2 sequence (P51813 1-675): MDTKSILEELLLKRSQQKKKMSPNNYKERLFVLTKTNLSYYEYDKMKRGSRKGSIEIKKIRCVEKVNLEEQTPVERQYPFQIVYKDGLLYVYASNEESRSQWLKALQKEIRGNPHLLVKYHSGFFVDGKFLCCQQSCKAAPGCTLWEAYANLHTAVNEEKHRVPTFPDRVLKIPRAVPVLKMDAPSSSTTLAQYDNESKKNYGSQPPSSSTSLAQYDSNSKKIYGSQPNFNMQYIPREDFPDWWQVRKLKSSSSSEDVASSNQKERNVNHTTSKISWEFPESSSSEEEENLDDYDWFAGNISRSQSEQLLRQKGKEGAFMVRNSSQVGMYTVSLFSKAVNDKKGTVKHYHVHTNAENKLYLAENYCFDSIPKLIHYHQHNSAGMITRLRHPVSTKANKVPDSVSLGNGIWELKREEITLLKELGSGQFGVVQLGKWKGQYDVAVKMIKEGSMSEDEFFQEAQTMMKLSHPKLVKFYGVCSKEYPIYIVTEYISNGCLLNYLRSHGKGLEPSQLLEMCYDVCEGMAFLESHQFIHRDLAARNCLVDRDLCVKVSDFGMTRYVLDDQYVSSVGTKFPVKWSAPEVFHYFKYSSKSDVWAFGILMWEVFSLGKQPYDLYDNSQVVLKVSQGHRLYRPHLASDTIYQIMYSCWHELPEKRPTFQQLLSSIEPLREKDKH

[1] = Phase I pharmacokinetics in healthy volunteers; format: in vivo; conditions: male, human, plasma, oral; after multiple doses, all dose levels (BID)
Protocol: PK/PD data from 24 subjects who had received the drug BID among the 90 total subjects who participated in the MAD study were analyzed. Blood was collected on day 1 before drug administration and 1 h, 2 h, 4 h, and 12 h after drug administration. Blood samples were taken 3 days and 2 h after drug administration. Additional blood samples were taken on day 6 (5, 20, and 60 mg/kg), day 15 (40 mg/kg), day 17, and day 21 for PK/PD analysis.
After drug administration, whole blood was collected from CIA model rats and human subjects at the indicated times. Plasma was obtained by centrifugation at 12,000 rpm for 2 min and stored at − 20 °C until analysis.

Sequence of BTK (Q06187 whole entry): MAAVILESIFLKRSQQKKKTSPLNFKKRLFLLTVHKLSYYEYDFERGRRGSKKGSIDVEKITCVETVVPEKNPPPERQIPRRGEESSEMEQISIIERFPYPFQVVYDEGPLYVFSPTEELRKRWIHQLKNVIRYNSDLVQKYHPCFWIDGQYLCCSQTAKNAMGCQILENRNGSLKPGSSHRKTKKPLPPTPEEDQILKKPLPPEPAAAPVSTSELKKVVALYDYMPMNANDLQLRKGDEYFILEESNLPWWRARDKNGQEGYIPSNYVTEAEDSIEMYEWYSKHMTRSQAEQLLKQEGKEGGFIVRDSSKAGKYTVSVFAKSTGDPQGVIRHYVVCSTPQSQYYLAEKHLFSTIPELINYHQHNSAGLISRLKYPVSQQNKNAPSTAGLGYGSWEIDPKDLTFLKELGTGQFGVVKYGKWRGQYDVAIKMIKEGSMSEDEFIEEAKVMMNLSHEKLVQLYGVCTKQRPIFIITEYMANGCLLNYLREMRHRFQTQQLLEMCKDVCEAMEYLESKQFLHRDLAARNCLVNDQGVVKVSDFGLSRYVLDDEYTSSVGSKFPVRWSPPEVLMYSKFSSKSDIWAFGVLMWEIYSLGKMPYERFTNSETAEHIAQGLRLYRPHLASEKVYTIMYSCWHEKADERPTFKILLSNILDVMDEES

- IC50 (BTK): 6 nM
- IC50 (A431): > 500 nM
- selectivity toward BTK over ITK (ITK): 53 ×
- IC50 (BMX): < 10 nM
- Tmax [1]: 1 to 2 h
SMILES: C=CC(=O)Nc1cccc(Oc2nc(Nc3ccc(N4CCN(C)CC4)cc3)nc3ccoc23)c1 [Poseltinib]
